From ChEMBL document CHEMBL3233009, “Pyrazoles as non-classical bioisosteres in prolylcarboxypeptidase (PrCP) inhibitors” (Bioorg Med Chem Lett, 2014)

Legend:
[1] = target: T1, Lysosomal Pro-X carboxypeptidase (Mus musculus, UniProt Q7TMR0); assay: Inhibition of recombinant mouse PrCP using Mca-Ala-Pro-Lys(Dnp)-OH as substrate after 30 mins by continuous fluorometric assay
T1 sequence (Q7TMR0 whole entry): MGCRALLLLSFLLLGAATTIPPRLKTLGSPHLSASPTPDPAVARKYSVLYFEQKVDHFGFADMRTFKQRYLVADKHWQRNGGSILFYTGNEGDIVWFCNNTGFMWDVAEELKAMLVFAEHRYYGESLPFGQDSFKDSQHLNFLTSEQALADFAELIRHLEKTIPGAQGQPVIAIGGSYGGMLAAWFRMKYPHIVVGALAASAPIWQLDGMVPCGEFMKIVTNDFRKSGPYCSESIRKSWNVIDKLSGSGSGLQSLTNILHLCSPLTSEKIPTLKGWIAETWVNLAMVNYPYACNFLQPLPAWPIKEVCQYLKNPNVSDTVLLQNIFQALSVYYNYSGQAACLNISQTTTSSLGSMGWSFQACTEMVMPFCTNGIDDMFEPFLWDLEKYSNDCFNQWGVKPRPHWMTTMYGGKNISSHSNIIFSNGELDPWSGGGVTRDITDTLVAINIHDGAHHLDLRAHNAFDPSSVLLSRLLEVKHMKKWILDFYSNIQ

[2] = Fraction unbound in human 100% plasma; format: ADME, cell-free
[3] = Fraction unbound in mouse 100% plasma; format: ADME, cell-free
[4] = Clearance in C57Bl/6 mouse at 1 mg/kg, iv and 2 mg/kg, po; format: ADME, organism-based; conditions: in vivo
[5] = Volume of distribution in C57Bl/6 mouse at 1 mg/kg, iv and 2 mg/kg, po; format: ADME, organism-based; conditions: in vivo
[6] = Half life in C57Bl/6 mouse at 1 mg/kg, iv and 2 mg/kg, po; format: ADME, organism-based; conditions: in vivo
[7] = system: Mus musculus; assay: Dose normalized AUC in C57Bl/6 mouse at 2 mg/kg, po; format: ADME, organism-based; design: dose 2 mg/kg, route oral; conditions: in vivo
[8] = Oral bioavailability in C57Bl/6 mouse at 2 mg/kg; format: ADME, organism-based; conditions: in vivo
[9] = Clearance in C57Bl/6 mouse at 2 mg/kg, iv and 10 mg/kg, po; format: ADME, organism-based; conditions: in vivo
[10] = Volume of distribution in C57Bl/6 mouse at 2 mg/kg, iv and 10 mg/kg, po; format: ADME, organism-based; conditions: in vivo
[11] = Half life in C57Bl/6 mouse at 2 mg/kg, iv and 10 mg/kg, po; format: ADME, organism-based; conditions: in vivo
[12] = system: Mus musculus; assay: Dose normalized AUC in C57Bl/6 mouse at 10 mg/kg, po; format: ADME, organism-based; design: dose 10 mg/kg, route oral; conditions: in vivo
[13] = Oral bioavailability in C57Bl/6 mouse at 10 mg/kg; format: ADME, organism-based; conditions: in vivo

IC50 [1] [nM]	fraction unbound [2]	fraction unbound [3]	SMILES	other results
220			Clc1ccc(-c2cc([C@@H]3CC[C@@H](N4CCOCC4)C[C@H]3c3ccc(Br)cc3)[nH]n2)cc1	
4.7			O=C([C@@H]1CC[C@@H](NCc2ccc(Cl)cc2)C[C@H]1c1ccc(F)cc1)N1CC(c2ccccc2)(c2ccccc2)C1	
2.2	0.03	< 0.01	Fc1ccc([C@@H]2CN(CCc3ccccc3)CC[C@H]2c2cc(-c3ccc(Cl)cc3)n[nH]2)cc1.O=C(O)C(F)(F)F	clearance [4]: 28.9 mL/min/kg; Vd [5]: 13.3 L/kg; half-life [6]: 4.8 h; AUC/dose [7]: 0.413 µM·kg·h/mg; bioavailability [8]: 33%
24			Fc1ccc([C@H]2CN(CCc3ccccc3)CC[C@H]2c2cc(-c3ccc(Cl)cc3)n[nH]2)cc1	
5.9			OC(CN1CC[C@@H](c2cc(-c3ccc(Cl)cc3)n[nH]2)[C@H](c2ccc(F)cc2)C1)c1ccccc1 (some centres undefined)	
30			O=C(CN1CC[C@@H](c2cc(-c3ccc(Cl)cc3)n[nH]2)[C@H](c2ccc(F)cc2)C1)c1ccccc1	
23	0.07	< 0.01	Fc1ccc(-c2cc(C3(c4ccccc4)CCN(CCc4ccccc4)CC3)[nH]n2)cc1	
3.6	< 0.01	< 0.01	Cn1nc(-c2ccc(F)cc2)cc1C1(c2ccccc2)CCN(CCc2ccccc2)CC1	
	0.01	0.04	Cn1nc(-c2ccc(F)cc2)cc1C1(c2ccccn2)CCN(CCc2ccccc2)CC1	
	0.02	0.04	Cc1ccccc1[C@@H]1C[C@H](N2CCOCC2)CC[C@H]1C(=O)N1CC(c2ccccc2)(c2ccccc2)C1.O=C(O)C(F)(F)F	clearance [9]: 72.2 mL/min/kg; Vd [10]: 10.8 L/kg; half-life [11]: 1.7 h; AUC/dose [12]: 0.037 µM·kg·h/mg; bioavailability [13]: 7.8%
20			Fc1ccc([C@@H]2CN(CCc3ccc(Cl)cc3)CC[C@H]2c2cc(-c3ccc(Cl)cc3)n[nH]2)cc1 (racemic)	
	< 0.01	< 0.01	Fc1ccc([C@@H]2CN(Cc3ccc(Cl)cc3)CC[C@H]2c2cc(-c3ccc(Cl)cc3)n[nH]2)cc1 (racemic)	
56			Fc1ccc([C@@H]2CN(CCC(F)(F)F)CC[C@H]2c2cc(-c3ccc(Cl)cc3)n[nH]2)cc1 (racemic)	

SMILES	IC50 [1] [nM]	fraction unbound [2]	fraction unbound [3]	other results
Clc1ccc(-c2cc(C3(c4ccccc4)CCN(CCc4ccccc4)CC3)[nH]n2)cc1		0.03	< 0.01	
